One may read the fraction remaining as the share of the starting amount still present when the sample was taken. Read a high fraction remaining as greater stability.

A short description of one series: in vitro. The following applies: CD-1, mouse, liver microsomes, pH 7.4.
Series [1] in a line: Metabolic stability in liver microsomes. A general note: Microsomes from liver hold many membrane-bound enzymes, among them those of drug oxidation.
Series [2] can be described thus: Non-enzymatic stability under cellular assay conditions (HPLC). The format is physicochemical. The following applies: compound remaining, assay medium DMEM, 37 °C. On the procedure: An important aspect in the development of PROTACs is testing chemical stability. On the one hand, we tested all PROTACs produced for their stability under cellular assay conditions. For this purpose, 10 µM solutions of the PROTACs and reference inhibitor were incubated for 72 h at 37 °C with the assay medium DMEM. The remaining amount of the compounds was determined by HPLC after 6, 12, 24, 48 and 72 h. The results of the stability studies are shown in Table S2 (Supplementary Information).
The developed compounds were diluted in the assay media consisting of a mixture of DMEM (50%), DMSO (10%) and acetonitrile (40%) at pH 7.4 and incubated at 37 °C for 72 h. The quantity of the compounds was measured after 6, 12, 24, 48, and 72 h by HPLC using an XTerra RP18 column ([…], 3.9 mm × 100 mm) from the manufacturer Waters (Milford, MA, USA) and two LC-10AD pumps, an SPD-M10AVP PDA detector, and an SIL-HT autosampler, all from the manufacturer Shimadzu (Kyoto, Japan).

Series [3] deals with T1, FLT3-ITD (Homo sapiens, UniProt P36888, INS600HVDFREYEYD).
T1 sequence (P36888 with tags, fused parts or gaps INS600HVDFREYEYD): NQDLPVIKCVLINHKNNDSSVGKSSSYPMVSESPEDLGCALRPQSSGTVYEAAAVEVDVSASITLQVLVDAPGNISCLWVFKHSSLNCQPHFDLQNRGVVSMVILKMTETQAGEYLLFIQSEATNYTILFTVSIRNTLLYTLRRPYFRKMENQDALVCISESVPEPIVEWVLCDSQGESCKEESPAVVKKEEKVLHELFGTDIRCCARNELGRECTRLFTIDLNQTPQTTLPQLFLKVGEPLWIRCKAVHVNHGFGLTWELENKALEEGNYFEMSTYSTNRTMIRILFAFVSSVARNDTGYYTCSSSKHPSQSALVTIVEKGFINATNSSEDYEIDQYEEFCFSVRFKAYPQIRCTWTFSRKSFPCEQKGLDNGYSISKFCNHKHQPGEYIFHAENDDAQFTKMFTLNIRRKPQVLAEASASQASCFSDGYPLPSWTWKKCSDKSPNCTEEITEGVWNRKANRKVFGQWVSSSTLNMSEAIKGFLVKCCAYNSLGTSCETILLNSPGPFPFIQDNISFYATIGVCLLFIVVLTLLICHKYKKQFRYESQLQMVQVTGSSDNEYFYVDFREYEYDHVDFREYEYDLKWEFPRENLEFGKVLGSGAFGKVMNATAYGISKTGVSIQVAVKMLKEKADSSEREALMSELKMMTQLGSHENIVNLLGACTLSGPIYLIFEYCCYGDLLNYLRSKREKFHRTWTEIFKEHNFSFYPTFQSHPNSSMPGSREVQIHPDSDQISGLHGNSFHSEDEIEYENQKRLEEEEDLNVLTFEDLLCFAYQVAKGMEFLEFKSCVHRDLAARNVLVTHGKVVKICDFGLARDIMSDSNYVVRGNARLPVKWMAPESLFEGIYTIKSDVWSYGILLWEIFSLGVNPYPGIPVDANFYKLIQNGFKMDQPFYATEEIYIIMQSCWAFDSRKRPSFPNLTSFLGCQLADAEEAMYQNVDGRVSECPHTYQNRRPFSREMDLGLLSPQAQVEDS
As to the kind of experiment: FLT3-ITD degradation, immunoblot in MV4-11 cells. The following applies: for inhibition at 0.05 µM: MV4-11, 24 h, read-out: % FLT3-ITD Degradation at 50 nM. (Immunoblotting shows a protein as a band on a membrane.)

Series [4] has as its system FLT3-ITD. As to the kind of experiment: KINOMEscan binding assay. Here is the method: Binding to FLT3-ITD was determined using the KINOMEscan^TM assay (Eurofins DiscoverX Corporation, San Diego, CA, USA)
Kinase-tagged T7 phage strains were prepared in an E. coli host derived from the BL21 strain. E. coli were grown to log-phase and infected with T7 phage and incubated with shaking at 32 °C until lysis. The lysates were centrifuged and filtered to remove cell debris. The remaining kinases were produced in HEK-293 cells and subsequently tagged with DNA for qPCR detection. […] The liganded beads were blocked with excess biotin and washed with blocking buffer (SeaBlock (Pierce), 1% BSA, 0.05% Tween 20, 1 mM DTT) to remove unbound ligand and to reduce non-specific binding. […] The compounds were then diluted directly into the assays such that the final concentration of DMSO was 0.9%. All reactions performed in polypropylene 384-well plate. Each was a final volume of 0.02 mL. […] The kinase concentration in the eluates was measured by qPCR.

As to `O=C(O)Cc1ccccc1Nc1c(Cl)cccc1Cl` [Diclofenac, Diclofenac sodium, reference compound], in the series “in vitro”, the share remaining at 10 min, 25 µM came out at 94.7 ± 1.7%; the fraction remaining at 0.5 h, 25 µM is 78%; the share remaining at 1 h, 25 µM was 73%; the share remaining at 2 h, 25 µM came out at 59%. For the same compound, in series [1] (mouse (CD-1) liver microsomes, 25 μM, 0 min), the “0 min—Compound Remaining %” value is 100%. Moreover, the “30 min—Compound Remaining %” value in series [1] (mouse (CD-1) liver microsomes, 25 μM, 30 min) was found to be 79.0 ± 1.3%. In series [1] (mouse (CD-1) liver microsomes, 25 μM, 120 min), the “120 min—Compound Remaining %” value came to 60.8 ± 2.2%. Further, the “0 min - compound remaining %” value in series [1] (single runs A and B (Table S3), 0 min) worked out at 100%. Moreover, the “10 min - compound remaining %” value in series [1] (single runs A and B (Table S3), 10 min) stood at 96%. In addition, in series [1] (single runs A and B (Table S3), 30 min, listed as Diclofenac_A), the “30 min - compound remaining %” value was 80%.
Regarding `Cc1ncsc1-c1ccc([C@H](C)NC(=O)[C@@H]2C[C@@H](O)CN2C(=O)[C@@H](NC(=O)CCCCCCCNC(=O)c2cc(Oc3ccc(NC(=O)Nc4cccc(C(F)(F)F)c4)cc3)ccn2)C(C)(C)C)cc1` [MA42, N-(8-(((S)-1-((2S,4R)-4-Hydroxy-2-(((S)-1-(4-(4-methylthiazol-5-yl)phenyl)ethyl)carbamoyl)-pyrrolidin-1-yl)-3,3-dimethyl-1-oxobutan-2-yl)amino)-8-oxooctyl)-4-(4-(3-(3-(trifluoromethyl)phenyl)ureido)phenoxy)picolinamide], in series [2], the “0 h - %” value is given as 100%, the 6 h- % is on record as 99.7%, the 12 h- % came to 100.0% and the 24 h- % turned out to be 100.2%. Moreover, in series [2], the 48 h- % worked out at 100.8% and the 72 h- % worked out at 101.0%. In addition, the inhibition at 0.05 µM on FLT3-ITD [3] was determined as 30%. The “FLT3-ITD degradation” value on FLT3-ITD [3] (MV4-11 cells, 50 nM, 24 h) is “no significant degradation”.
For the compound `Cc1ncsc1-c1ccc([C@H](C)NC(=O)[C@@H]2C[C@@H](O)CN2C(=O)[C@@H](NC(=O)CCCCCNC(=O)c2cc(Oc3ccc(NC(=O)Nc4cccc(C(F)(F)F)c4)cc3)ccn2)C(C)(C)C)cc1` [MA43, N-(6-(((S)-1-((2S,4R)-4-Hydroxy-2-(((S)-1-(4-(4-methylthiazol-5-yl)phenyl)ethyl)carbamoyl)-pyrrolidin-1-yl)-3,3-dimethyl-1-oxobutan-2-yl)amino)-6-oxohexyl)-4-(4-(3-(3-(trifluoromethyl)phenyl)ureido)phenoxy)picolinamide], in series [2], the “0 h - %” value is reported as 100%, the 6 h- % is recorded as 100.1%, the 12 h- % was found to be 100.3% and the 24 h- % was found to be 100.5%. Also, in series [2], the 48 h- % is given as 101.0% and the 72 h- % is reported as 101.2%. The inhibition at 0.05 µM at FLT3-ITD [3] was determined as 20%. The “FLT3-ITD degradation” value on FLT3-ITD [3] (MV4-11 cells, 50 nM, 24 h) was “no significant degradation”.
As for `Cc1ncsc1-c1ccc([C@H](C)NC(=O)[C@@H]2C[C@@H](O)CN2C(=O)[C@@H](NC(=O)CCCCCCCNC(=O)c2cc(Oc3ccc(NC(=O)Nc4cc(C(C)(C)C)on4)cc3)ccn2)C(C)(C)C)cc1` [MA73, 4-(4-(3-(5-(tert-Butyl)isoxazol-3-yl)ureido)phenoxy)-N-(8-(((S)-1-((2S,4R)-4-hydroxy-2-(((S)-1-(4-(4-methylthiazol-5-yl)phenyl)ethyl)carbamoyl)pyrrolidin-1-yl)-3,3-dimethyl-1-oxobutan-2-yl)amino)-8-oxooctyl)picolinamide], in series [2], the “0 h - %” value is 100%, the 6 h- % was determined as 101.2%, the 12 h- % was determined as 101.3% and the 24 h- % turned out to be 102.2%. In series [2], this compound showed a 48 h- % of 103.3% and a 72 h- % of 106.1%. In addition, the “% FLT3-ITD Binding at 1 µM” value in the series on FLT3-ITD [4] worked out at 84 ± 1%. Further, the inhibition at 0.05 µM on FLT3-ITD [3] was 80%.
With `Cc1ncsc1-c1ccc([C@H](C)NC(=O)[C@@H]2C[C@@H](O)CN2C(=O)[C@@H](NC(=O)CCOCCOCCNC(=O)c2cc(Oc3ccc(NC(=O)Nc4cc(C(C)(C)C)on4)cc3)ccn2)C(C)(C)C)cc1` [MA74, 4-(4-(3-(5-(tert-Butyl)isoxazol-3-yl)ureido)phenoxy)-N-(2-(2-(3-(((S)-1-((2S,4R)-4-hydroxy-2-(((S)-1-(4-(4-methylthiazol-5-yl)phenyl)ethyl)carbamoyl)pyrrolidin-1-yl)-3,3-dimethyl-1-oxobutan-2-yl)amino)-3-oxopropoxy)ethoxy)ethyl)picolinamide], in series [2], the “0 h - %” value stood at 100%, the 6 h- % was determined as 101.4%, the 12 h- % is 101.4% and the 24 h- % came to 101.8%. Besides, in series [2], the 48 h- % is 102.6% and the 72 h- % came out at 103.1%. In addition, the “% FLT3-ITD Binding at 1 µM” value with FLT3-ITD [4] was 89 ± 2%. The inhibition at 0.05 µM at FLT3-ITD [3] is 90%.
`Cc1ncsc1-c1ccc([C@H](C)NC(=O)[C@@H]2C[C@@H](O)CN2C(=O)[C@@H](NC(=O)CCCCCCNC(=O)c2cc(Oc3ccc(NC(=O)Nc4cc(C(C)(C)C)on4)cc3)ccn2)C(C)(C)C)cc1` [MA77, 4-(4-(3-(5-(tert-Butyl)isoxazol-3-yl)ureido)phenoxy)-N-(7-(((S)-1-((2S,4R)-4-hydroxy-2-(((S)-1-(4-(4-methylthiazol-5-yl)phenyl)ethyl)carbamoyl)pyrrolidin-1-yl)-3,3-dimethyl-1-oxobutan-2-yl)amino)-7-oxoheptyl)picolinamide]: in series [2], the “0 h - %” value is reported as 100%, the 6 h- % is on record as 99.6%, the 12 h- % came out at 99.6% and the 24 h- % worked out at 99.9%. Besides, in series [2], the 48 h- % is 100.5% and the 72 h- % turned out to be 100.7%. Also, the “% FLT3-ITD Binding at 1 µM” value with FLT3-ITD [4] is reported as 89 ± 2%. Also, the inhibition at 0.05 µM on FLT3-ITD [3] was 80%.
Turning to `Cc1ncsc1-c1ccc([C@H](C)NC(=O)[C@H]2C[C@H](O)CN2C(=O)[C@@H](NC(=O)[C@H]2CC[C@H](C(=O)N3CCC(CCNC(=O)c4cc(Oc5ccc(NC(=O)Nc6cc(C(C)(C)C)on6)cc5)ccn4)CC3)CC2)C(C)(C)C)cc1` [MA224, 4-(4-(3-(5-(tert-Butyl)isoxazol-3-yl)ureido)phenoxy)-N-(2-(1-(trans-4-(((S)-1-((2R,4S)-4-hydroxy-2-(((S)-1-(4-(4-methylthiazol-5-yl)phenyl)ethyl)carbamoyl)pyrrolidin-1-yl)-3,3-dimethyl-1-oxobutan-2-yl)carbamoyl)cyclohexanecarbonyl)piperidin-4-yl)ethyl)picolinamide], the “% FLT3-ITD Degradation at 50 nM” value at FLT3-ITD [3] (MV4-11 cells, 50 nM, 24 h) is listed as “No effect”.
In the case of `NS(=O)(=O)OC[C@@H]1C[C@@H](n2ccc3c(N[C@H]4CCc5ccccc54)ncnc32)C[C@@H]1O` [MLN4924, reference compound], the “rescue of MA191-mediated degradation” value at FLT3-ITD [3] (50 nM MA191 ± 3 µM MLN4924, 6 h, MV4-11 and MOLM-13 cells) is given as “prevented the MA191-mediated degradation of FLT3-ITD as well as MAPK14”.
